# Data: patent publication US4542027A, “Laidlomycin phenylcarbamate” (Syntex (U.S.A.) Inc., priority 1984, dated 1985)
# What was measured:
# [1] = test system: rumen fluid; test: Propionic acid production (VFA) in in vitro rumen fluid fermentation; assay type: cell-based, steer; design: Propionic acid production rate: unit not given here
# Description: (§1) Two separate fermentation models were used to evaluate effects of laidlomycin and laidlomycin phenylcarbamate upon volatile fatty acids (VFA) and lactic acid production. Test compounds were solubilized in absolute ethanol at concentrations of 1 mg/ml and were serially diluted twofold in absolute ethanol through six additional concentrations. Aliquots of 200 μl were transferred to 18×150 mm test tubes, which were used as incubation vessels, and the ethanol was evaporated.
# (§2) For both fermentation models rumen fluid from a rumen-fistulated steer, consuming a 100% alfalfa hay diet, was obtained before the morning feeding. The fluid was strained through four layers of cheesecloth, mixed with an equal volume of CO2 -saturated buffer, and 10 ml was transferred to each of the incubation vessels. All tubes were fitted with gas-release stoppers under an atmosphere of CO2 and were incubated in a shaking waterbath at 39° C. […] This medium, designed to be microbiologically nonselective, encouraged VFA production with no accumulation of lactic acid. Buffer used to study lactic acid accumulation (table 1) contained 150 mmol of glucose/liter and had little buffering capacity. This medium favored growth of lactic acid-producing bacteria and allowed rapid production of lactic acid coupled with a precipitous drop in pH from pH 6.2 to less than pH 5 during the course of an incubation.
# (§3) Fermentation was terminated at 9 h for the VFA fermentations and at 5.5 h for the lactic acid fermentations by addition of 2 ml of 25% metaphosphoric acid to the incubation tubes. Aliquots were frozen overnight, thawed, centrifuged at 30,000 × g for 10 min and the resulting supernatants analyzed for either L(+)-lactic acid or VFA. The L(+)-lactic acid was analyzed via a specific enzymatic assay in which the concentration of lactic acid in the fermentation broth was quantified by the increase in absorbance of light at 340 nm when nicotinamide adenine dinucleotide was reduced by lactic acid with the aid of L(+)-lactic dehydrogenase. VFA were analyzed via gas chromatography using a Varian chromatograph equipped with a flame ionization detector. Acids were separated on a glass column (0.64×182.9 cm) packed with 10% SP-1200/1% H3 PO4 on Chromosorb-WAW®, 80-100 mesh. This column was obtained pre-packed from Supelco, Inc., Bellefont, Pennsylvania. Chromatographic conditions included a column temperature of 145° C., an injector temperature of 190° C., a detector temperature of 190° C., a carrier gas flow of 45 ml/min and an injection volume of 1 μl.
# (§4) Net production rates of all acids were calculated by subtracting the concentration of acids in the incubation fluid before incubation from the concentration determined in each tube after incubation. Molar proportions of acetic, propionic, and butyric acids produced were calculated by dividing the production rate of individual acids by the sum of the production rates of the three acids. Data were analyzed by analysis of variance (SAS, 1979). Comparisons (Duncan's multiple range test) of individual means were made when treatment effects (P<0.05) were indicated.
# [2] = test system: rumen fluid; test: L(+)-Lactic acid production in in vitro rumen fluid fermentation; assay type: cell-based, steer; design: Lactic acid production rate: unit not given here
# Description: as §1, §2, §3, §4
# [3] = test system: Eimeria acervulina and Eimeria maxima; test: Anticoccidial activity in broiler chicks challenged with Eimeria acervulina and Eimeria maxima; assay type: in vivo; settings: for Feed efficiency, feed/gain: 7 d; for Feed consumption / Gain / Final weight: cage of 12 chicks; for Final weight / Lesion scores, middle intestine / Lesion scores, upper intestine: 7 days after challenge; for Lesion scores, middle intestine / Lesion scores, upper intestine: scale 0 (least) to 4 (most severe)
# Source text: Broiler chicks were reared, 12 per cage, in wire-floored battery cages under conditions which prevented extraneous coccidial infections. All chicks received a nonmedicated starter diet ad libitum until 8 days of age. From 8 days of age until the end of the study, chicks received the test diets which contained either O, 99, 121, 143 or 165 ppm of laidlomycin phenylcarbamate per kg of feed. Three replicate pens per treatment were used for all levels of experimental compounds tested.
# At 10 days of age, birds were orally challenged with 200,000 oocycts of the coccidia, Eimeria acervulina, and 20,000 oocysts of Eimeria maxima per bird. The birds were weighed immediately preceding the coccidial challenge and again 7 days later. At 7 days following coccidial challenge, all birds were killed and lesions in the upper and middle sections of the intestinal tracts of six preselected birds per cage were scored on a scale of 0 to 4 based upon their number and severity. Feed present at the time of coccidial challenge and remaining 7 days later was used to determine the effects of compounds upon total feed consumption and feed efficiency.
# [4] = Stability at 60° C. in methanol-water, acetate buffer; assay type: physicochemical
# Description: Laidlomycin phenylcarbamate, laidlomycin isopopylcarbamate and two laidlomycin esters were prepared and their relative stability at 60° C. methanol-water, acetate buffer was determined. A complete list of the esters and carbamates which were tested under these conditions follows: […]
# [5] = Stability in soybean millrun feed premix at 60° C.; assay type: physicochemical
# Description: These materials were then stored at 60° C. and analyzed for starting material at one week. The premix composition is given in Table 5 and the stability data in Table 6.
# [6] = all non-zero concentrations, vs unmedicated
# [7] = in comparison with laidlomycin acylates
compound,measurement,setting,value
"CCC(=O)OC(C(C)C(=O)O)C(C)C1OC2(CCC(C)(C3CCC(C)(C4OC(C5OC(O)(COC(=O)Nc6ccccc6)C(C)CC5C)CC4C)O3)O2)CC(O)C1C (stereo not drawn) [Laidlomycin phenylcarbamate, laidlomycin phenylcarbamate]",Propionate production enhancement (in words),[1],surprisingly and unexpectedly high
same,Propionic acid production rate,"[1]; 0.31 μg/ml, 9 h",22.8
same,Propionic acid production rate,"[1]; 0.62 μg/ml, 9 h",23.4
same,Propionic acid production rate,"[1]; 1.25 μg/ml, 9 h",25.2
same,Propionic acid production rate,"[1]; 2.50 μg/ml, 9 h",25.7
same,Propionic acid production rate,"[1]; 5.00 μg/ml, 9 h",26.9
same,Propionic acid production rate,"[1]; 10.00 μg/ml, 9 h",27.0
same,Propionic acid production rate,"[1]; 20.00 μg/ml, 9 h",28.2
same,"Propionic acid production, percentage of control","[1]; 20.00 μg/ml, 9 h, 540 min",133 % of control
same,activity at 0.31 µg/mL,"[1]; 9 h, 0.31 μg/ml, 9 h, read-out: Propionic acid production, percentage of control",107%
same,activity at 1.25 µg/mL,"[1]; 9 h, 1.25 μg/ml, 9 h, read-out: Propionic acid production, percentage of control",118%
same,activity at 2.5 µg/mL,"[1]; 9 h, 2.50 μg/ml, 9 h, read-out: Propionic acid production, percentage of control",121%
same,activity at 5 µg/mL,"[1]; 9 h, 5.00 μg/ml, 9 h, read-out: Propionic acid production, percentage of control",126%
same,activity at 10 µg/mL,"[1]; 9 h, 10.00 μg/ml, 9 h, read-out: Propionic acid production, percentage of control",127%
same,activity at 20 µg/mL,"[1]; 9 h, 20.00 μg/ml, 9 h, read-out: Propionic acid production, percentage of control",> 130%
same,activity at 0.62 µg/mL,"[1]; 9 h, read-out: Propionic acid production, percentage of control, 0.62 μg/ml, 9 h",110%
same,Propionic acid production enhancement relative to laidlomycin,[1]; over all concentrations,more potent than laidlomycin (P<0.05)
same,Lactic acid suppression (in words),[2],surprisingly and unexpectedly high
same,Lactic acid production rate,"[2]; 0.31 μg/ml, 5.5 h",28.4
same,activity at 0.31 µg/mL,"[2]; 0.31 μg/ml, 5.5 h, read-out: Lactic acid production, percentage of control",102%
same,Lactic acid production rate,"[2]; 0.62 μg/ml, 5.5 h",27.7
same,activity at 0.62 µg/mL,"[2]; 0.62 μg/ml, 5.5 h, read-out: Lactic acid production, percentage of control",99%
same,Lactic acid production rate,"[2]; 1.25 μg/ml, 5.5 h",15.6
same,activity at 1.25 µg/mL,"[2]; 1.25 μg/ml, 5.5 h, read-out: Lactic acid production, percentage of control",56%
same,Lactic acid production rate,"[2]; 2.50 μg/ml, 5.5 h",6.1
same,"Lactic acid production, percentage of control","[2]; 2.50 μg/ml, 5.5 h",21 % of control
same,activity at 2.5 µg/mL,"[2]; 2.50 μg/ml, 5.5 h, read-out: Lactic acid production, percentage of control",21%
same,Lactic acid production rate,"[2]; 5.00 μg/ml, 5.5 h",3.8
same,activity at 5 µg/mL,"[2]; 5.00 μg/ml, 5.5 h, read-out: Lactic acid production, percentage of control",13%
same,Lactic acid production rate,"[2]; 10.00 μg/ml, 5.5 h",4.0
same,activity at 10 µg/mL,"[2]; 10.00 μg/ml, 5.5 h, read-out: Lactic acid production, percentage of control",14%
same,Lactic acid production rate,"[2]; 20.00 μg/ml, 5.5 h",3.8
same,activity at 20 µg/mL,"[2]; 20.00 μg/ml, 5.5 h, read-out: Lactic acid production, percentage of control",13%
same,Inhibition of lactic acid production relative to laidlomycin,[2]; over all concentrations tested,superior to laidlomycin (P<0.05)
same,"Feed efficiency, feed/gain",[3]; 99 mg/kg of feed,2.21
same,Feed consumption,[3]; 99 mg/kg of feed,3.40 kg/7 d
same,Gain,[3]; 99 mg/kg of feed,1.54 kg/7 d
same,Final weight,[3]; 99 mg/kg of feed,3.86 kg
same,"Lesion scores, middle intestine",[3]; 99 mg/kg of feed,1.43
same,"Lesion scores, upper intestine",[3]; 99 mg/kg of feed,1.20
same,"Feed efficiency, feed/gain",[3]; 121 mg/kg of feed,2.16
same,Feed consumption,[3]; 121 mg/kg of feed,3.19 kg/7 d
same,Gain,[3]; 121 mg/kg of feed,1.47 kg/7 d
same,Final weight,[3]; 121 mg/kg of feed,3.72 kg
same,"Lesion scores, middle intestine",[3]; 121 mg/kg of feed,1.57
same,"Lesion scores, upper intestine",[3]; 121 mg/kg of feed,1.23
same,"Feed efficiency, feed/gain",[3]; 143 mg/kg of feed,2.19
same,Feed consumption,[3]; 143 mg/kg of feed,3.46 kg/7 d
same,Gain,[3]; 143 mg/kg of feed,1.58 kg/7 d
same,Final weight,[3]; 143 mg/kg of feed,3.97 kg
same,"Lesion scores, middle intestine",[3]; 143 mg/kg of feed,1.47
same,"Lesion scores, upper intestine",[3]; 143 mg/kg of feed,0.50
same,"Feed efficiency, feed/gain",[3]; 165 mg/kg of feed,1.84
same,Feed consumption,[3]; 165 mg/kg of feed,3.47 kg/7 d
same,Gain,[3]; 165 mg/kg of feed,1.89 kg/7 d
same,Final weight,[3]; 165 mg/kg of feed,4.21 kg
same,"Lesion scores, middle intestine",[3]; 165 mg/kg of feed,0.70
same,"Lesion scores, upper intestine",[3]; 165 mg/kg of feed,0.66
same,Protection against coccidiosis,[3]; all non-zero concentrations tested,protection against coccidiosis was afforded by all non-zero concentrations
same,Lesion scores in the upper and middle intestines (in words),[3]; [6],greatly reduced lesion scores in the upper and middle intestines
same,Quantity of feed required per unit of gain (in words),[3]; [6],halved the quantity of feed required per unit of gain
same,Weight gain (in words),[3]; [6],doubled weight gain
same,half-life,"[4]; 60° C., methanol-water, acetate buffer, read-out: t1/2 (converted)",32.7 days
same,Stability in solution (in words),[4]; [7],highly stable
same,Stability in feed premixes (in words),[5]; [7],highly stable
same,remaining at 168 h,"[5]; soybean millrun feed premix, 60° C., one week, soybean millrun premix, 10% (w/w)",100%
